{"source": "patent US20260183270A1", "about": "“PHARMACEUTICAL COMPOSITION COMPRISING AAK1 INHIBITOR” (Xizang Haisco Pharmaceutical Co., Ltd., priority 2022, published 2026)", "key": {"[1]": {"target": "T1, AAK1 (Homo sapiens, UniProt Q2M2I8)", "T1 construct": "purchased Signalchem A01-11G-10", "T1 sequence (Q2M2I8 27-365 limits assumed)": "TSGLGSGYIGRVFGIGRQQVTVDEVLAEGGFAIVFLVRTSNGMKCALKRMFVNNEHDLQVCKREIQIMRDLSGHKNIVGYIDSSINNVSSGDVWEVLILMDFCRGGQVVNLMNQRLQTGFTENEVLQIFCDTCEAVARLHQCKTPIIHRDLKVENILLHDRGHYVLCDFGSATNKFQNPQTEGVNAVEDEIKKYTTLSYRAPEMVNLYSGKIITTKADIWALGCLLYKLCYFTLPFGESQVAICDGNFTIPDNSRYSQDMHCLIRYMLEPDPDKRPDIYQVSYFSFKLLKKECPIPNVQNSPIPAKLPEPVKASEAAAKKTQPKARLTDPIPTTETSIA", "assay": "In vitro AAK1 enzyme activity assay (ADP-Glo)", "format": "biochemical", "settings": "read-out: Inhibitory activity against AAK1 IC50", "protocol": "Compound stock solution (concentration: 10 mM, dissolved in DMSO) was diluted with DMSO to 0.2 mM and then diluted with DMSO in 5-fold gradient to obtain compound solutions with 10 concentrations. Subsequently, the compound solutions with different concentrations were diluted 50-fold in 1× kinase reaction buffer (containing 40 mM Tris, 20 mM MgCl2, 0.1% BSA and 0.5 mM DTT) for later use. AAK1 (Signalchem, Cat #A01-11G-10) was diluted with 1× kinase reaction buffer to 2-fold the final concentration (final concentrations: 30 nM and 28 nM). AAK1 was added to a 384-well white plate at 2 μL/well, and the compounds were then added at 1 μL/well. The plate was sealed with a plate-sealing film, centrifuged at 1000 rpm for 30 seconds and then placed at room temperature for 10 minutes. […] The RLU (Relative luminescence unit) signal values were read using a Biotek multimode microplate reader and the percent inhibition was calculated according to the following formula: [1−(LUMcompound−LUMpositive control)/(LUMnegative control−LUMpositive control)]×100. IC50 values were calculated using Graphpad 7.0 software using a four-parameter non-linear fit equation."}, "[2]": {"target": "T2, hERG potassium channel (Homo sapiens, UniProt Q12809)", "T2 construct": "expressed in transfected cells", "T2 sequence (Q12809 whole entry)": "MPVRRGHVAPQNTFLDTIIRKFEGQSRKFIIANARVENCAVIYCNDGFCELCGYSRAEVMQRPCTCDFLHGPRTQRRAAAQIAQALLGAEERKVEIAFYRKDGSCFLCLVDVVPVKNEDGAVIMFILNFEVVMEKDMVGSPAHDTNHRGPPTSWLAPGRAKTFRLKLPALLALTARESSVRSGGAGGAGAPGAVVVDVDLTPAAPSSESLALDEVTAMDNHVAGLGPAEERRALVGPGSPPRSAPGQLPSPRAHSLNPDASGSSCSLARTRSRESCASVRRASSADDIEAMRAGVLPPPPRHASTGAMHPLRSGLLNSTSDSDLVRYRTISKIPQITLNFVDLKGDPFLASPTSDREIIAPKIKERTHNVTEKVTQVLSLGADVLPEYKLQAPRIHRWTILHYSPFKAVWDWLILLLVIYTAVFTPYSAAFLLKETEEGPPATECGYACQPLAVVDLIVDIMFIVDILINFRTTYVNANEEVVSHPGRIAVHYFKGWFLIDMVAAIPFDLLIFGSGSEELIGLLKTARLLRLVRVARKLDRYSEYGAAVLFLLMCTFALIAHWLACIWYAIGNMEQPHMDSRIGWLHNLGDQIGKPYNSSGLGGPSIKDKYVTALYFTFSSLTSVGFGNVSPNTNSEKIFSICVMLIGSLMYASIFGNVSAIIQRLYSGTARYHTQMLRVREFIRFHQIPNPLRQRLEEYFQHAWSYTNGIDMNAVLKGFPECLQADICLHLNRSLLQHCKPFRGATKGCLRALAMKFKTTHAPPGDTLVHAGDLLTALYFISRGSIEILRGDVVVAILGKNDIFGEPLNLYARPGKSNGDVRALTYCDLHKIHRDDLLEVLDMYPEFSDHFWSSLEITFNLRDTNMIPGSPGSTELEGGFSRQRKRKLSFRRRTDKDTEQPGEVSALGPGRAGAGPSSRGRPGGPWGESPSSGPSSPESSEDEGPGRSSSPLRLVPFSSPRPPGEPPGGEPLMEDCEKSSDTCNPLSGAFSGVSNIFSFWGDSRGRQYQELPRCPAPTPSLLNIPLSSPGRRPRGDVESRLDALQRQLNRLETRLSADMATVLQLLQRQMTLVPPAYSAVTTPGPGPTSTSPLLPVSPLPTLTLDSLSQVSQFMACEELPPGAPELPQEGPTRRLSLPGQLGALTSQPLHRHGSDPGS", "assay": "Test for hERG potassium ion channel (manual whole cell patch-clamp, CHO cells)", "format": "cell-based", "excerpt": "Experimental platform: electrophysiological manual patch-clamp system\nCell line: Chinese hamster ovary (CHO) cell line stably expressing hERG potassium ion channel\nExperimental method: in CHO (Chinese Hamster Ovary) cells stably expressing hERG potassium channel, the whole cell patch-clamp technique was used to record hERG potassium channel current at room temperature. The glass microelectrode was made of a glass electrode blank (BF150-86-10, Sutter) by a puller. The tip resistance after filling the liquid in the electrode was about 2-5 MΩ. The glass microelectrode can be connected to the patch-clamp amplifier by inserting the glass microelectrode into an amplifier probe. The clamping voltage and data recording were controlled and recorded by the pClamp 10 software through a computer. The sampling frequency was 10 kHz, and the filtering frequency was 2 kHz. […]\nData processing: data analysis processing was carried out by using pClamp 10, GraphPad Prism 5 and Excel software. The inhibition degree of hERG potassium current (peak value of hERG tail current induced at −50 mV) at different compound concentrations was calculated by the following formula: […]\nCompound IC50 was calculated using GraphPad Prism 5 software by fitting according to the following equation: […]"}, "[3]": {"tested_on": "SNL-induced mouse model of neuropathic pain", "assay": "Spinal nerve ligation (SNL)-induced mouse model of neuropathic pain, mechanical pain threshold (Von Frey)", "format": "in vivo, C57BL/6J mice", "settings": "for Course of analgesic efficacy over time / Effect on pain threshold (MPT) of mice after SNL modeling: 10 mg/kg intragastric; for Course of analgesic efficacy over time: 1 to 6 hours after administration; for Effect on pain threshold (MPT) of mice after SNL modeling: single administration, 1, 3 and 6 hours after administration", "excerpt": "Male C57BL/6J mice (8 weeks old) purchased from Jinan Pengyue Experimental Animal Breeding Co., Ltd. were adaptively raised for one week and then the models were established. The specific establishment method comprises the following steps: • 1) disinfecting the surgical instrument and ligature; • 2) anesthetizing the mice with isoflurane and then placing the mice on the operating table in the prone position; • 3) shaving the fur near the hip bones of the mice and preparing the skin, and making an incision of about 2 cm along the spine; • 4) isolating the fascia along the spine, performing blunt dissection of the muscles, and exposing the transverse process of L5; • 5) carefully cutting the transverse process of L5 with forceps and exposing the L5 spinal nerve; • 6) carefully isolating the L5 nerve with a glass dissecting needle, and ligating the L5 nerve with a 5-0 ligature; and • 7) suturing the muscles and skin and disinfecting same with iodophor.\nThe mice that were unsuccessful in modeling were eliminated the next day after modeling (marker for successful modeling: mice with their hind paws curled up). After modeling, the mice were stroked for 3 to 5 minutes every day to ensure that the animals were familiar with the experimenter, and then the mice were placed on a metal pain measuring frame for 40 to 60 minutes of adaptation. After 3 days of acclimatization, Von Frey filaments (Aesthesio®; 0.16 g, 0.4 g, 0.6 g, 1.0 g, 1.4 g and 2.0 g) were used to test the pre-administration baseline values of the animals (Ascending testing approach). Each animal was tested twice and average values were taken, with intervals of at least 5 minutes. The animals were grouped according to the baseline values (10 animals per group). After the grouping, LX-9211 (1 and 10 mg/kg), compound 2 (1 and 10 mg/kg) or vehicle (40% PEG-400+10% ethanol+15% Tween 80+35% physiological saline) was administered intragastrically. The mice were tested for the mechanical pain threshold (MPT) at 1, 3 and 6 hours after the administration. Time-MPT curve was plotted using GraphPad 8.3.0, and statistical analysis was performed."}, "[4]": {"assay": "Mouse brain/blood ratio test", "format": "in vivo, ICR mice", "settings": "mice", "protocol": "male ICR mice, 20 to 25 g, 9 mice/compound. purchased from Chengdu Ddossy Experimental Animals Co., Ltd.\non the day of the experiment, 18 ICR mice were randomly grouped according to their body weights. The animals were fasted with water available for 12 to 14 h one day before the administration and were fed 4 h after the administration.\nAfter intragastric administration, whole blood and brain tissue were collected at 0.5 h, 4 h and 24 h, and the whole blood was centrifuged to separate the plasma. The brain tissue was rinsed with cold physiological saline to remove the residual blood on the surface, drained out and then homogenized. Before analysis and detection, all samples were stored at −80 C, and the samples were quantitatively analyzed by LC-MS/MS."}, "[5]": {"assay": "Pharmacokinetic test of dogs", "format": "in vivo", "settings": "beagle dogs, i.g. (3 mg/kg)", "protocol": "Experimental animals: male beagle dogs, about 8 to 11 kg, 6 beagle dogs/compound, purchased from Beijing Marshall Biotechnology Co., Ltd.\nExperimental method: on the day of the experiment, 12 beagle dogs were randomly grouped according to their body weights. The animals were fasted with water available for 12 to 14 h one day before the administration and were fed 4 h after the administration. Administration was performed as per Table 2.\nBefore and after the administration, 1 ml of blood was taken from the jugular veins or limb veins, and placed in an EDTAK2 centrifuge tube. Centrifugation was performed at 5000 rpm at 4° C. for 10 min, and plasma was collected. Blood sampling time points for both the LX9211 intravenous administration group and intragastric administration group include: 0 min, 5 min, 15 min, 30 min, 1 h, 2 h, 4 h, 6 h, 8 h, 10 h, 12 h, and 24 h, and blood sampling time points for both the compound 9 intravenous administration group and intragastric administration group include: 0 min, 5 min, 15 min, 30 min, 1 h, 2 h, 4 h, 6 h, 8 h, 10 h, 12 h, 24 h, and 48 h. Before analysis and detection, all samples were stored at −80° C., and the samples were quantitatively analyzed by LC-MS/MS."}}, "data": [{"smiles": "COC(=O)Nc1cc(-c2ccc(OC[C@@](C)(N)CC(C)(C)F)c(C)n2)ccn1", "note": "[Compound 10]", "values": [{"measurement": "IC50", "setting": "[1]", "value": 13.7, "unit": "nM"}]}, {"smiles": "C=C(C)CC(C)(N)COc1ccc(-c2ccnc(C(F)F)c2)nc1C(F)F", "note": "(single isomer, unassigned) [Compound 2]", "values": [{"measurement": "IC50", "setting": "[1]", "value": 10.9, "unit": "nM"}, {"measurement": "inhibition at 40 µM", "setting": "[2]; human, CHO cells stably expressing hERG potassium channel, at 40 μM, read-out: Inhibition rate at the highest concentration tested (hERG potassium channel current)", "value": "86.6 ± 1.77", "unit": "%"}, {"measurement": "IC50", "setting": "[2]; read-out: IC50 (hERG potassium channel current)", "value": 8750, "unit": "nM"}, {"measurement": "Course of analgesic efficacy over time", "setting": "[3]", "value": "tended to be stable"}, {"measurement": "Effect on pain threshold (MPT) of mice after SNL modeling", "setting": "[3]", "value": "effectively increased the pain threshold"}, {"measurement": "Efficacy compared with LX-9211", "setting": "[3]; at 3 and 6 hours after the administration", "value": "better efficacy than LX-9211"}, {"measurement": "Pharmacodynamic activity as an analgesic compared with LX-9211", "setting": "[3]; overall conclusion", "value": "better pharmacodynamic activity than LX-9211"}, {"measurement": "Kp", "setting": "[4]; male, ICR, mouse, brain/plasma, po, i.g. (10 mg/kg)", "value": 64.5}, {"measurement": "AUC(0-t)", "setting": "[4]; male, ICR, mouse, plasma, po, i.g. (10 mg/kg), read-out: Plasma AUC0-t", "value": 572, "unit": "ng·h/mL"}, {"measurement": "Brain penetrability (in words)", "setting": "[4]", "value": "high brain penetrability"}, {"measurement": "Brain tissue AUC0-t", "setting": "[4]; i.g. (10 mg/kg)", "value": 36853, "unit": "ng·h/g"}]}, {"smiles": "COC(=O)Nc1cc(-c2ccc(OC[C@@](C)(N)CC(C)(C)F)c(C(F)F)n2)ccn1", "note": "[Compound 9]", "values": [{"measurement": "F", "setting": "[5]", "value": "113 ± 6.9", "unit": "%"}]}, {"smiles": "CC(C)C[C@](C)(N)COc1ccc(-c2ccnc(C(F)F)c2)nc1C(F)F", "note": "[LX-9211, reference compound]", "values": [{"measurement": "F", "setting": "[5]", "value": "22.2 ± 8.1", "unit": "%"}, {"measurement": "Course of analgesic efficacy over time", "setting": "[3]", "value": "efficacy gradually decreased thereafter"}, {"measurement": "Effect on pain threshold (MPT) of mice after SNL modeling", "setting": "[3]", "value": "effectively increased the pain threshold"}, {"measurement": "Brain tissue AUC0-t", "setting": "[4]; i.g. (10 mg/kg)", "value": 110424, "unit": "ng·h/g"}]}]}
